Laboratory results from patent publication US20220117921A1, “PHARMACEUTICAL COMBINATIONS FOR THE TREATMENT OF PAIN” (IMUNEKS FARMA ILAC SANAYI VE TICARET A.S., priority 2018, published 2022).

Tested on: female Albino Wistar rats
Experiment: Hot plate test (heat induced pain model)
Type: in vivo, rat
Conditions: comparison between groups

Structure (SMILES): CC(C(=O)O)c1ccc(-c2ccccc2)c(F)c1 (stereo not shown) [FBP, Flurbiprofen]
- analgesic effect in the hot plate test (in words): lowest analgesic effect compared to all the other groups except the placebo group
